Assay results published in publication PMC12638379, “An innovative approach to development of new pyrazolylquinolin-2-one hybrids as dual EGFR and BRAF^V600E inhibitors” (Molecular Diversity, 2025).
Like-named read-outs stand apart in the source and are kept apart here.

Test system: NCI 60 cancer cell lines
Experiment: NCI anticancer screening over a panel of 60 cancer cells, single concentration 10 µM
Type: cell-based, human
Settings: Homo sapiens, read-out: % Growth Inhibition (GI %)
Procedure, shortened: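 Primary single-dose screen at 10 µM over the NCI panel of 60 human tumour cell lines (leukemia, CNS, lung, colon, kidney, ovary, breast, prostate). The standard NCI Developmental Therapeutics Program protocol was used.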

[1] = 786-0, Renal cancer 786-0, 10 μM
[2] = A549, Non-small cell lung cancer A549/ATCC, 10 μM
[3] = BT-549, Breast cancer BT-549, 10 μM
[4] = CAKI-1, Renal cancer CAKI-1, 10 μM
[5] = CCRF-CEM, Leukemia CCRF-CEM, 10 μM
[6] = COLO 205, Colon cancer COLO 205, 10 μM
[7] = DU-145, Prostate cancer DU-145, 10 μM
[8] = EKVX, Non-small cell lung cancer EKVX, 10 μM
[9] = HCC 2998, Colon cancer HCC-2998, 10 μM
[10] = HCT-15, Colon cancer HCT-15, 10 μM
[11] = HCT-116, Colon cancer HCT-116, 10 μM
[12] = HL-60, Leukemia HL-60(TB), 10 μM
[13] = HOP-62, Non-small cell lung cancer HOP-62, 10 μM
[14] = HOP-92, Non-small cell lung cancer HOP-92, 10 μM
[15] = HT-29, Colon cancer HT29, 10 μM
[16] = Hs-578T, Breast cancer HS 578T, 10 μM
[17] = IGROV-1, Ovarian cancer IGROV1, 10 μM
[18] = LOX IMVI, Melanoma LOX IMVI, 10 μM
[19] = MCF7, Breast cancer MCF7, 10 μM
[20] = MDA-MB-231, Breast cancer MDA-MB-231/ATCC, 10 μM
[21] = MDA-MB-435, Melanoma MDA-MB-435, 10 μM
[22] = MDA-MB-468, Breast cancer MDA-MB-468, 10 μM
[23] = NCI-H23, Non-small cell lung cancer NCI-H23, 10 μM
[24] = NCI-H226, Non-small cell lung cancer NCI-H226, 10 μM
[25] = NCI-H322M, Non-small cell lung cancer NCI-H322M, 10 μM
[26] = NCI-H460, Non-small cell lung cancer NCI-H460, 10 μM
[27] = NCI-H522, Non-small cell lung cancer NCI-H522, 10 μM
[28] = NCI/ADR-RES, Ovarian cancer NCI/ADR-RES, 10 μM
[29] = OVCAR-3, Ovarian cancer OVCAR-3, 10 μM
[30] = OVCAR-4, Ovarian cancer OVCAR-4, 10 μM
[31] = OVCAR-5, Ovarian cancer OVCAR-5, 10 μM
[32] = OVCAR-8, Ovarian cancer OVCAR-8, 10 μM
[33] = RPMI-8226, Leukemia RPMI-8226, 10 μM
[34] = RXF 393, Renal cancer RXF 393, 10 μM
[35] = SF-268, CNS Cancer SF-268, 10 μM
[36] = SF-295, CNS Cancer SF-295, 10 μM
[37] = SF-539, CNS Cancer SF-539, 10 μM
[38] = SK-MEL-2, Melanoma SK-MEL-2, 10 μM
[39] = SK-MEL-5, Melanoma SK-MEL-5, 10 μM
[40] = SK-MEL-28, Melanoma SK-MEL-28, 10 μM
[41] = SK-OV-3, Ovarian cancer SK-OV-3, 10 μM
[42] = SN12C, Renal cancer SN12C, 10 μM
[43] = SNB-19, CNS Cancer SNB-19, 10 μM
[44] = SNB-75, CNS Cancer SNB-75, 10 μM
[45] = SW-620, Colon cancer SW-620, 10 μM
[46] = T47D, Breast cancer T-47D, 10 μM
[47] = TK-10, Renal cancer TK-10, 10 μM
[48] = UACC-62, Melanoma UACC-62, 10 μM
[49] = UACC-257, Melanoma UACC-257, 10 μM
[50] = UO-31, Renal cancer UO-31, 10 μM

Measured: inhibition at 10 µM

COc1ccc2[nH]c(=O)cc(-n3ncc(/C(C)=N/Nc4ccc(C(=O)O)cc4)c3C)c2c1 [Compound 4h, (E)-4-(2-(1-(1-(6-methoxy-2-oxo-1,2-dihydroquinolin-4-yl)-5-methyl-1H-pyrazol-4-yl)ethylidene)hydrazineyl)benzoic acid]
38.5%: [14]
5.52%: [19]
4.98%: [20]
22.6%: [50]
< 5%: [1] | A498, Renal cancer A498, 10 μM | [2] | ACHN, Renal cancer ACHN, 10 μM | [3] | [4] | [5] | [6] | [7] | [8] | [9] | [10] | [11] | [12] | [13] | [15] | [16] | [17] | K562, Leukemia K-562, 10 μM | KM12, Colon cancer KM12, 10 μM | [18] | Leukemia SR, 10 μM | [21] | [22] | MOLT-4, Leukemia MOLT-4, 10 μM | Melanoma M14, 10 μM | Melanoma MALM-3M, 10 μM | [23] | [24] | [25] | [26] | [27] | [28] | [29] | [30] | [31] | [32] | Prostate cancer PC-3, 10 μM | [33] | [34] | [35] | [36] | [37] | [38] | [39] | [40] | [41] | [42] | [43] | [44] | [45] | [46] | [47] | U-251, CNS Cancer U251, 10 μM | [48] | [49]

C/C(=N\Nc1ccc(C(=O)O)cc1)c1cnn(-c2cc(=O)[nH]c3ccc(Cl)cc23)c1C [Compound 4i, (E)-4-(2-(1-(1-(6-chloro-2-oxo-1,2-dihydroquinolin-4-yl)-5-methyl-1H-pyrazol-4-yl)ethylidene)hydrazineyl)benzoic acid]
36.7%: [14]
6.25%: [16]
< 5%: [1] | A498, Renal cancer A498, 10 μM | [2] | ACHN, Renal cancer ACHN, 10 μM | [3] | [5] | [6] | [7] | [8] | [9] | [10] | [11] | [13] | [15] | [17] | KM12, Colon cancer KM12, 10 μM | [18] | Leukemia SR, 10 μM | [21] | [22] | MOLT-4, Leukemia MOLT-4, 10 μM | Melanoma M14, 10 μM | [23] | [24] | [25] | [26] | [27] | [28] | [29] | [30] | [31] | [32] | Prostate cancer PC-3, 10 μM | [33] | [34] | [35] | [36] | [37] | [38] | [39] | [40] | [42] | [43] | [45] | [47] | U-251, CNS Cancer U251, 10 μM | [49]
5.56%: [44]
19.4%: Melanoma MALM-3M, 10 μM
8.38%: [19]
6.23%: [46]
10.8%: [4]
7.48%: K562, Leukemia K-562, 10 μM
5.88%: [12]
5.11%: [41]
6.04%: [48]
29.1%: [50]
12.9%: [20]
